Here are results for six substances from US11860169B2, “Method of treating and prognosing scoliotic patient subgroups” (Chu Sainte-Justine, priority 2013, dated 2024).

The test system of data set [1] is Gi-mediated cell signaling. Kind of data set: Gi-mediated cellular response measured by cellular impedance (CellKey system) in osteoblasts treated with OPN, HA or antibodies. Format: cell-based, human. As to conditions: LPA stimulation. As to the method:
Gi-mediated cellular response in the presence of increasing amounts of rOPN was measured by cellular impedance using the CellKey™ system (Akoume et al., 2010; and Akoume et al., 2013 (J. Vis. Exp.)) in functional groups FG1, FG2 and FG3;
Osteoblasts from healthy subjects and AIS patients of each endophenotype (FG1, FG2 and FG3) were treated with vehicle, OPN (500 ng/ml) or HA (10 μM). The Gi-mediated cellular response in the presence of increasing amounts of LPA was measured by cellular impedance using the CellKey™ system;
(§1) CD44 activity (A) or expression (B) was inhibited in osteoblasts from control, FG1, FG2 and FG3 patients and the effect on OPN-dependent inhibition of Gi-mediated cell signaling was monitored using the CellKey™ system following stimulation with LPA.
Antibodies against integrins β1, β3 and β5 reverse the effect of OPN on Gi-mediated response in FG2 and FG3 subjects only, while blockade of CD44 further potentiates the effect of OPN.
(§2) The variation in Gi-mediated cell signaling in response to OPN in each functional group (FG1, FG2 and FG3) was studied. FIGS. 20 and 21 show the response to OPN (increasing doses) on osteoblasts isolated from patients classified into functional groups FG1, FG2 and FG3. […] Furthermore, MC3T3-E1 cells were used to check the effect of the knockdown of OPN and its receptors. MC3T3-E1 osteoblasts cells were transiently transfected in serum-free medium, using Lipofectamine™ RNAiMAX reagent (Invitrogen) according to the manufacturers instructions and functional experiments were performed 48 h post transfection.

For data set [2], the system named is Gi-mediated cell signaling. The data set can be described thus: Gi-mediated cellular response measured by cellular impedance (CellKey system) after siRNA knockdown in osteoblasts. The format is cell-based. As to conditions: for Effect of OPN knock down on Gi-mediated transduction: 48 h post transfection; for Effect of siRNA on OPN-dependent change of Gi-mediated cell signaling: in presence of OPN. The method, then: Gi-mediated cellular response in the presence siRNAs against rOPN was measured by cellular impedance using the CellKey™ system (Akoume et al., 2010; and Akoume et al., 2013 (J. Vis. Exp.)) in functional groups FG1, FG2 and FG3;
as §1
SiRNAs against integrins β1, β3 and β5 reversed the effect of OPN on Gi-mediated response while blockade of CD44 further potentiated the effect of OPN.
as §2
MC3T3-E1 cells were also used to check the effect of the knockdown of OPN's receptors by RNAi. Experimental conditions were as described for Example 5. The sequence of RNA oligonucleotides used for the knockdowns are: integrin β1 (CCU MG UCA GCA GUA GGA ACA UUA U (SEQ ID NO: 15)), integrin β3 (CCUCCAGCUCAUUGUUGAUGCUUAU (SEQ ID NO: 16)); integrin β5 ([…], HSS-105572, Life technologies (SEQ ID NO: 17), […], HSS-105573, Life technologies (SEQ ID NO: 18); and […], HSS-179984, life technologies, (SEQ ID NO: 19)) and CD44 (GM CM GGA GUC GUC AGA MC UCC A (SEQ ID NO: 20)).

[3] abbreviates: osteoblasts from FG1 AIS subjects, increasing rOPN, or OPN 500 ng/ml or HA 10 μM.
[4] abbreviates: osteoblasts from FG2 AIS subjects, increasing rOPN, or OPN 500 ng/ml or HA 10 μM.
[5] abbreviates: osteoblasts from FG3 AIS subjects, increasing rOPN, or OPN 500 ng/ml or HA 10 μM.
Where [6] appears, read: osteoblasts from control (healthy) subjects, OPN 500 ng/ml or HA 10 μM.
Where [7] appears, read: osteoblasts from control subjects.

Entries after “also recorded” stand apart in the source; their conditions may differ.

As to Hyaluronic acid [HA], the “Effect on Gi-mediated cellular response” value in data set [1] (setting [3]) is recorded as “increases the Gi-mediated cellular response”; in data set [1] (setting [4]), “decreases the Gi-mediated response”; in data set [1] (setting [5]) it was “decreases the Gi-mediated response”; in data set [1] (setting [6]), “decreases the Gi-mediated response”.
Take “OPN siRNA: siRNA for knock down of OPN expression: CCA CAG CCA CM GCA GUC CAG AUU A (CCACAGCCACAAGCAGUCCAGAUUA; listed as RNA, chemistry not fully specified)”: the “Effect of OPN knock down on Gi-mediated transduction” value in data set [2] (FG1) was “tends to decrease the response”; in data set [2] (FG2), “increases Gi-mediated transduction”; in data set [2] (FG3), “increases Gi-mediated transduction”.
On to “OPN: osteopontin, encoded by SPP1 (Gene ID 6696); recombinant rOPN added to osteoblasts”, for which the “Effect on Gi-mediated cellular response” value in data set [1] (setting [3]) was “enhances Gi signaling”; in data set [1] (setting [4]), “aggravates the impairment”; in data set [1] (setting [5]), “aggravates the impairment”; in data set [1] (setting [6]), “decreases the Gi-mediated response”.
As for “siRNA against CD44: RNA oligonucleotide for CD44 knockdown: GM CM GGA GUC GUC AGA MC UCC A (GAACAAGGAGUCGUCAGAAACUCCA; listed as RNA, chemistry not fully specified)”, the “Effect of siRNA on OPN-dependent change of Gi-mediated cell signaling” value is “further increased Gi-mediated cell signaling” in data set [2] (osteoblasts from FG1 subjects), “further decreased Gi-mediated cell signaling; also recorded: further reduced Gi-mediated signaling” in data set [2] (osteoblasts from FG2 subjects), “further decreased Gi-mediated cell signaling; also recorded: further reduced Gi-mediated signaling” in data set [2] (osteoblasts from FG3 subjects) and “further decreased Gi-mediated cell signaling; also recorded: further reduced Gi-mediated signaling” in data set [2] (setting [7]).
“siRNA against integrin β1: RNA oligonucleotide for integrin β1 knockdown: CCU MG UCA GCA GUA GGA ACA UUA U (CCUAAGUCAGCAGUAGGAACAUUAU; listed as RNA, chemistry not fully specified)”: the “Effect of siRNA on OPN-dependent change of Gi-mediated cell signaling” value in data set [2] (osteoblasts from FG1 subjects) is on record as “reduced (blocked) the increase in Gi-mediated response induced by OPN”; in data set [2] (osteoblasts from FG2 subjects), “can be reversed”; in data set [2] (osteoblasts from FG3 subjects), “can be reversed”; in data set [2] (setting [7]), “can be reversed”.
As for “siRNA against integrin β3: RNA oligonucleotide for integrin β3 knockdown: CCUCCAGCUCAUUGUUGAUGCUUAU (CCUCCAGCUCAUUGUUGAUGCUUAU; listed as RNA, chemistry not fully specified)”, the “Effect of siRNA on OPN-dependent change of Gi-mediated cell signaling” value in data set [2] (osteoblasts from FG1 subjects) was “reduced (blocked) the increase in Gi-mediated response induced by OPN”; in data set [2] (osteoblasts from FG2 subjects) it was “can be reversed”; in data set [2] (osteoblasts from FG3 subjects) it was “can be reversed”; in data set [2] (setting [7]) it was “can be reversed”.
